Data taken from US12410228B2, “Insulin analogs” (UNIVERSITY OF UTAH RESEARCH FOUNDATION, priority 2016, dated 2025).

What was measured:
fish = test: Effect on fish (injection or presence in the water); type: in vivo
human IR (isoform B) = biological target: T1, human IR (isoform B) (Homo sapiens, UniProt P06213); test: biochemical; type: binding
T1 construct: expressed in transfected cells; host or cells: R- IR-B cells, lysed with Triton X-100 and captured with anti-IR antibody 83-7; This comes from the general description of the Denley et al. 2004 format

human IR-B = biological target: T2, human IR-B (Homo sapiens, UniProt P06213); test: cell-based
T2 construct: expressed in transfected cells; host or cells: NIH 3T3 mouse fibroblasts overexpressing human IR-B (puromycin selection)

[1] = relative to insulin; Bao et al. 1997; cited from earlier work
hIR = hIR (Homo sapiens, UniProt P06213); test: hIR activation / insulin signalling activation by DOI analogues and venom insulins (Example 11, FIGS. 22-27); type: cell-based

CC[C@H](C)[C@@H]1NC(=O)[C@H](CC(C(=O)O)C(=O)O)NC(=O)[C@H](CO)NC(=O)CNC(=O)[C@@H](NC(=O)[C@H](CCCNC(=N)N)NC(=O)[C@H](Cc2c[nH]cn2)NC(=O)[C@H](CCCCN)NC(=O)[C@@H]2C[C@@H](O)CN2C(=O)[C@@H](NC(=O)[C@H](CC(=O)O)NC(=O)[C@H](Cc2ccccc2)NC(=O)[C@@H](N)[C@@H](C)O)[C@@H](C)O)CSSC[C@@H]2NC(=O)[C@@H](NC(=O)[C@H](Cc3c[nH]cn3)NC(=O)[C@H](CC(C(=O)O)C(=O)O)NC(=O)[C@@H](NC(=O)[C@@H](NC(=O)CN)C(C)C)C(C)C)C[Se][Se]C[C@H](NC(=O)[C@@H]3CCCN3C(=O)[C@H](CCCNC(=N)N)NC(=O)[C@H](Cc3c[nH]cn3)NC2=O)C(=O)N[C@@H](CO)C(=O)N[C@@H](CC(N)=O)C(=O)N[C@@H](C)C(=O)N[C@@H](CCC(=O)O)C(=O)N[C@@H](Cc2ccccc2)C(=O)N[C@@H](CCCCN)C(=O)N[C@@H](CCCCN)C(=O)N[C@@H](Cc2ccc(O)cc2)C(=O)N[C@H](C(N)=O)CSSC[C@@H](C(=O)N[C@@H](Cc2ccc(O)cc2)C(=O)N[C@@H](CCCNC(=N)N)C(=O)O)NC(=O)[C@H](CC(C)C)NC(=O)[C@H](CC(=O)O)NC(=O)[C@H](CCSC)NC(=O)[C@H](Cc2ccc(O)cc2)NC(=O)[C@H](CO)NC(=O)[C@H](CC(N)=O)NC(=O)[C@H]([C@@H](C)O)NC1=O [sCon-Ins G1]
hypoglycemic effect in fish (fish; injected into fish): induces hypoglycemic shock
effect on fish motility (fish; present in the water): slows fish motility
IC50 (human IR (isoform B)): 17.4 nM
activity / affinity at human IR relative to human insulin (fold less) (human IR (isoform B)): thirty-fold less active
activity against the human IR-B relative to PTM-free analogue (human IR (isoform B)): four times more active
EC50 (human IR-B): 7.94 nM
efficiency of inducing Akt phosphorylation relative to PTM-free analogue (human IR-B): eight-fold greater efficiency

DOI: monomeric analogue lacking residues 23 to 30 of the B chain of human insulin [reference compound]
bioactivity preserved [1]: less than 0.1%
potency in hIR activation, comparison in words (hIR): same
potency relative to human insulin (fold weaker) (hIR; relative to human insulin): 1,000 fold

hIns[TyrB15, TyrB20, DOI]: des-octapeptide human insulin with Tyr at B15 and B20
activity in Akt phosphorylation assay relative to hIns[DOI] (human IR-B): ca five-fold more active

quadruple DOI mutant: DOI analogue with A8 His, A9 Arg, B10 Glu and B20 Tyr; A chain SEQ ID NO: 39, B chain SEQ ID NO: 30
potency in hIR activation, comparison in words (hIR): comparable to that of human insulin
